Here are results for 6 compounds from PubChem BioAssay AID2767 (The Scripps Research Institute Molecular Screening Center, 2010).

The target in the assay is TEM-1 beta-lactamase (Escherichia coli) (UniProt Q932Y6). The experiment in a line: concentration-dependent inhibition of TEM-1 enzyme – biochemical, epi-absorbance, IC50, counter-screen for dual metallo-beta-lactamase inhibitor project, late-stage follow-up (AID 2767). As to conditions: nitrocefin absorbance. (In general: A counterscreen serves to expose hits that act by an unwanted route or on another target.)
Chain of TEM-1 beta-lactamase (Escherichia coli) (Q932Y6 1-286): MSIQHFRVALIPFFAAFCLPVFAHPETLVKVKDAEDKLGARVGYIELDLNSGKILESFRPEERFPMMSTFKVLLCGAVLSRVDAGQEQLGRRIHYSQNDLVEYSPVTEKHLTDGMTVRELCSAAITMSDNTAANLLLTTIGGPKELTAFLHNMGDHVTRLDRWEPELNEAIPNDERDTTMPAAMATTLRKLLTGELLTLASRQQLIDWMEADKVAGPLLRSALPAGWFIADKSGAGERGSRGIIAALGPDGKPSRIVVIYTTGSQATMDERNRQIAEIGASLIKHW

Active and inactive are the calls of the source. How the calls were made is not given here.

Turning to `[Hg+][c]1ccccc1`, the IC50 (in general, the concentration that gives 50% inhibition) is > 59.6 µM (inactive).

In the case of `O=C(O)c1cc[c]([Hg][Cl])cc1`, the IC50 is > 59.6 µM (inactive).

Consider `Cc1cc[c]([Hg+])cc1`, for which the IC50 was > 59.6 µM (inactive).

`COc1cccc[c]1[Hg+]`: the IC50 was > 59.6 µM (inactive).

For the compound `O=C(O)c1ccc[c]([Hg+])c1`, the IC50 is > 59.6 µM (inactive).

On to `CC(=O)Nc1cc[c]([Hg+])cc1`, for which the IC50 is > 59.6 µM (inactive).
